Values quoted from earlier work, collected in PubChem BioAssay AID493017.

Molecular target: Estrogen receptor (Homo sapiens) (UniProt P03372)
Assay: PubChem AID 493017
Conditions: WOMBAT literature affinities, multiple human targets; ERalpha; gene ESR1; NCBI gene 2099

Sequence of Estrogen receptor (Homo sapiens) (P03372 whole entry, looked up): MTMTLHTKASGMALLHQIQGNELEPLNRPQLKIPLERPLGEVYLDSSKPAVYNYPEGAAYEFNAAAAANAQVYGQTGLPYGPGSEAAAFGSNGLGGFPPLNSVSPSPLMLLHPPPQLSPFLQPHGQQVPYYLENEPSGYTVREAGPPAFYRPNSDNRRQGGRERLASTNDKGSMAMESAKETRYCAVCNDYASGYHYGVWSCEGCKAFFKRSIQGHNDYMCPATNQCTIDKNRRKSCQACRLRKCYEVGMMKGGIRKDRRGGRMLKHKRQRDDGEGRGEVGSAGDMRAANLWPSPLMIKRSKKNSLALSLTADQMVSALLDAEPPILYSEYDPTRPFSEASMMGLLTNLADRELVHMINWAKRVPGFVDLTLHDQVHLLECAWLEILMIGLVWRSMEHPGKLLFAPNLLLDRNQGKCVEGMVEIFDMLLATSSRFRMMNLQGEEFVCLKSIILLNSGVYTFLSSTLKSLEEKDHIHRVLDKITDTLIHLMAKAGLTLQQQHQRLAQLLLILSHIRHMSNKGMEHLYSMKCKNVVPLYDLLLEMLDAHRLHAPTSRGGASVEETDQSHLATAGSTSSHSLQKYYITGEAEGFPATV

Q: With `C=C[C@]12CCC(O)CC1=CCC1C3CCC(O)[C@@]3(C)CCC12` (stereo not given in full) as the compound, how does the IC50 read?
A: 2240 nM

Q: With `CCc1nc(-c2ccc(O)cc2)c(-c2ccc(O)cc2)nc1-c1ccc(O)cc1` as the compound, how does the IC50 read?
A: 2.38 nM

Q: For `CCNC(=O)CC1C[C@]2(C)C(O)CCC2C2CCc3cc(O)ccc3C12` (stereo not given in full), which IC50 is on record?
A: 1800 nM

Q: Which IC50 does the source give for `CCCc1nc(-c2ccc(O)cc2)c(CCC)nc1-c1ccc(O)cc1` here?
A: 0.11 nM

Q: With `O=C(c1ccc(OCCN2CCCCC2)cc1)c1c(-c2ccc(O)cc2)sc2ccc(O)cc12` as the compound, how does the IC50 read?
A: 160 nM

Q: Which IC50 does the source give for `C[C@]12CCC3c4ccc(O)cc4CCC3C1CC[C@@]2(O)CCNC(=O)CBr` (stereo not given in full) here?
A: 1600 nM

Q: With `CCc1c(Cc2ccccc2)nc(-c2ccc(O)cc2)nc1-c1ccc(O)cc1` as the compound, how does the IC50 read?
A: 2.08 nM

Q: For `CCC(=C(c1ccccc1)c1ccccc1)c1cnn(OCCCN(C)C)c1`, which IC50 is on record?
A: 10000 nM

Q: With `CCc1nc(-c2ccc(O)cc2)c(-c2ccc(O)cc2)nc1CC` as the compound, how does the IC50 read?
A: 20.8 nM

Q: With `Oc1ccc(-n2cc3ccccc3n2)cc1` as the compound, how does the IC50 read?
A: 2000 nM

Q: For `CCc1nc(-c2ccc(O)cc2)nc(-c2ccc(O)cc2)c1-c1ccc(O)cc1`, which IC50 is on record?
A: 0.63 nM

Q: Which IC50 does the source give for `CCC(=C(c1ccccc1)c1ccnn1OCc1ccccc1)c1ccccc1` here?
A: 10000 nM

Q: With `COc1ccc2c(C(=O)c3ccc(OCCN4CCCCC4)cc3)c(-c3ccc(O)cc3)sc2c1` as the compound, how does the IC50 read?
A: 2000 nM

Q: With `CCC(=C(c1ccccc1)c1ccnn1OCCCN(C)C)c1ccccc1` as the compound, how does the IC50 read?
A: 1400 nM

Q: Which IC50 does the source give for `Oc1ccc(-n2cc3ccc(O)c(Br)c3n2)cc1` here?
A: 2000 nM

Q: With `CCC(=C(c1ccc(O)cc1)c1ccc(OCCN(C)CCON=Cc2ccc(O)c(C(N)=O)c2)cc1)c1ccccc1` as the compound, how does the IC50 read?
A: 300 nM

Q: Which IC50 does the source give for `Oc1ccc2nn(-c3ccccc3)c(Cl)c2c1` here?
A: 1330 nM

Q: Which IC50 does the source give for `CCC(=C(c1ccccc1)c1cnn(OCCN(C)C)c1)c1ccccc1` here?
A: 2800 nM

Q: For `CCC(=C(c1ccccc1)c1cnn(OCCCN(C)C)c1)c1cccs1`, which IC50 is on record?
A: 200 nM

Q: For `CCC(=C(c1ccccc1)c1ccnn1O)c1ccccc1`, which IC50 is on record?
A: 10000 nM

Q: Which IC50 does the source give for `CCNC1=C(c2ccc(O)cc2)C(=O)c2cc(O)cc(O)c21` here?
A: 2700 nM

Same assay, conditions: WOMBAT literature affinities, multiple human targets; binding affinity Kd; ERalpha; gene ESR1; NCBI gene 2099

Q: Which Kd does the source give for `CCc1c(-c2ccc(O)cc2)oc(-c2ccc(O)cc2)c1-c1ccc(O)cc1` here?
A: 0.214 nM

Q: Which Kd does the source give for `CC1(C)CC(c2ccc(O)cc2)=C(c2ccc(O)cc2)CC1(C)C` here?
A: 2 nM

Q: For `CC1c2ccc(O)cc2C2CC1c1cc(O)ccc1C2C` (stereo not given), which Kd is on record?
A: 4290 nM

Q: For `CCc1c(-c2ccc(O)cc2)nn(-c2ccc(O)cc2)c1-c1ccc(O)cc1`, which Kd is on record?
A: 0.83 nM

Q: For `CCCC1C(c2ccc(O)cc2)=C(CC)c2ccc(O)cc21` (stereo not given), which Kd is on record?
A: 1.67 nM

Q: With `CCCc1c(-c2ccc(O)cc2)nn(-c2ccc(O)cc2)c1C1CCCC1` as the compound, how does the Kd read?
A: 8300 nM

Q: With `CON=Cc1ccc(-c2ccccc2)c(-c2ccccc2)c1O` as the compound, how does the Kd read?
A: 2500 nM

Q: For `CCC1c2ccc(O)cc2C(C)C1c1ccc(O)cc1` (stereo not given), which Kd is on record?
A: 15 nM

Q: Which Kd does the source give for `C[C@]12CCC3c4ccc(O)cc4CCC3C1C(O)CC2O` (stereo not given in full) here?
A: 12 nM

Q: With `COc1ccc2c(c1)CN(c1ccc(OCCN3CCCCC3)cc1)C1=C2CCc2cc(OC)ccc21` as the compound, how does the Kd read?
A: 3000 nM

Q: Which Kd does the source give for `O=c1c2cc(O)ccc2c2ccc3cc(O)ccc3c2n1-c1ccc(OCCN2CCCCC2)cc1` here?
A: 3000 nM

Q: With `C[C@]12CC(O)C3c4ccc(O)cc4CCC3C1CCC2O` (stereo not given in full) as the compound, how does the Kd read?
A: 16.1 nM

Q: Which Kd does the source give for `O=C1c2cc(O)ccc2C2CC1c1ccc(O)cc1C2=O` here?
A: 5000 nM

Same assay, conditions: WOMBAT literature affinities, multiple human targets; binding affinity Ki; ERalpha; gene ESR1; NCBI gene 2099

Q: With `O=C(O)c1ccc(C2=C(c3ccc(O)cc3)Cc3cc(O)ccc32)cc1` as the compound, how does the Ki read?
A: 2850 nM

Q: For `Oc1ccc2c(c1)CCC21C=C(c2ccc(OCCN3CCCC3)cc2)c2cc(O)ccc21` (stereo not given), which Ki is on record?
A: 21.4 nM

Q: For `Oc1ccc(-c2c(-c3ccccc3)nn3cccnc23)cc1`, which Ki is on record?
A: 2000 nM

Q: With `Oc1ccc2c(c1)CCC21C=C(c2ccc(OCCN3CCCCC3)cc2)c2cc(O)ccc21` (stereo not given) as the compound, how does the Ki read?
A: 25.3 nM

Q: For `CCC1=C(c2ccc(O)cc2)C(C(=O)Nc2ccc(OCCN(C)C)cc2)c2cc(O)ccc21` (stereo not given), which Ki is on record?
A: 1420 nM

Q: With `Oc1ccc(C2=C(c3ccccc3)c3ccc(O)cc3C2)cc1` as the compound, how does the Ki read?
A: 63.3 nM

Q: For `Oc1ccc(-c2c(-c3cccc(O)c3)nn3c(C(F)(F)F)cc(C(F)(F)F)nc23)cc1`, which Ki is on record?
A: 2000 nM

Q: With `Cc1nc2c(-c3ccccc3)c(-c3ccc(O)cc3)nn2c(C)c1C` as the compound, how does the Ki read?
A: 2000 nM

Q: Which Ki does the source give for `CCC(=C(Cc1ccc(OCCN2CCOCC2)cc1)c1ccccc1)c1ccccc1` here?
A: 2480 nM

Q: With `Oc1ccc2c3c(sc2c1)Cc1cccc(O)c1C3c1ccc(OCCN2CCCCC2)cc1` (stereo not given) as the compound, how does the Ki read?
A: 2.6 nM

Q: With `CC(C)c1cc(C(C)C)n2nc(-c3ccc(O)cc3)c(-c3cccc(O)c3)c2n1` as the compound, how does the Ki read?
A: 2000 nM

Test system: WOMBAT literature affinities, multiple human targets
Assay: PubChem AID 493017
Conditions: HIV-1 P; gene HIV-1 protease

Q: Which IC50 does the source give for `CC(C)(C)NC(=O)c1ccccc1CCC(O)Cc1ccc2ccccc2c1C(=O)NC(C)(C)C` (stereo not given) here?
A: 1100 nM

Q: Which IC50 does the source give for `CC(=O)NC(CO)C(=O)NC(CC(C)C)C(=O)NC(CC(N)=O)C(=O)NC(Cc1ccccc1)C(O)CN1CCCC1C(=O)OC(C)(C)C` (stereo not given) here?
A: 14 nM

Q: Which IC50 does the source give for `Cc1cc(SC2=C(O)CC(CCc3ccc(O)cc3)(C(C)C)OC2=O)c(C(C)(C)C)cc1OS(C)(=O)=O` (stereo not given) here?
A: 2.2 nM

Q: Which IC50 does the source give for `CSCCC(NC(=O)C(CCO)N(Cc1ccccc1)C(=O)C(CC(C)C)NC(=O)OCc1ccccc1)C(=O)NC(C)(C)C` (stereo not given) here?
A: 365 nM

Q: Which IC50 does the source give for `Cc1cc(SC2=C(O)CC(CCc3ccc(O)cc3)(c3ccc(O)cc3)OC2=O)c(C(C)(C)C)cc1CO` (stereo not given) here?
A: 120 nM
